ChEMBL document CHEMBL1125035, “Synthesis and biological activity of novel vitamin D analogues: 24,24-difluoro-25-hydroxy-26,27-dimethylvitamin D3 and 24,24-difluoro-1 alpha,25-dihydroxy-26,27-dimethylvitamin D3” (1990)

Tests used:
[1] = tested on: Rattus norvegicus; experiment: Ability to mobilize Bone-Calcium transport, following the administration of compound in rats at a concentration of 500 pmol at 72 hr.; type: functional, organism-based
[2] = tested on: Rattus norvegicus; experiment: Ability to mobilize Bone-Calcium transport, following the administration of compound in rats at a concentration of 50 pmol at 47 hr.; type: functional, organism-based
[3] = tested on: Rattus norvegicus; experiment: Ability to stimulate intestinal-calcium transport by the administration of compound in rats at a concentration of 5 pmol at 72 hr.; type: functional, Intestine
[4] = tested on: Rattus norvegicus; experiment: Ability to stimulate intestinal-calcium transport by the administration of compound in rats at a concentration of 5 pmol at 13 hr.; type: functional, Intestine
[5] = species on record: Rattus norvegicus; experiment: Calcium binding protein induction in duodenal organ culture at a concentration of 1 nM in Male Albino rats; type: functional
[6] = tested on: Rattus norvegicus; experiment: Ability to mobilize Bone-Calcium transport, following the administration of compound in rats at a concentration of 5000 pmol at 72 hr.; type: functional, organism-based
[7] = tested on: Rattus norvegicus; experiment: Ability to mobilize Bone-Calcium transport, following the administration of compound in rats at a concentration of 5000 pmol at 47 hr.; type: functional, organism-based
[8] = tested on: Rattus norvegicus; experiment: Ability to stimulate intestinal-calcium transport by the administration of compound in rats at a concentration of 50 pmol at 47 hr.; type: functional, Intestine
[9] = Relative potency against calcium binding protein induction in duodenal organ culture at a concentration of 10 nM compared to 1,25-(OH)2-D3 in Male Albino rats; type: functional
[10] = species on record: Rattus norvegicus; experiment: Calcium binding protein induction in duodenal organ culture at a concentration of 10 nM in Male Albino rats; type: functional
[11] = tested on: Rattus norvegicus; experiment: Ability to mobilize Bone-Calcium transport, following the administration of compound in rats at a concentration of 5000 pmol at 13 hr.; type: functional, organism-based
[12] = tested on: Rattus norvegicus; experiment: Ability to stimulate intestinal-calcium transport by the administration of compound in rats at a concentration of 5000 pmol at 13 hr.; type: functional, Intestine
[13] = tested on: Rattus norvegicus; experiment: Ability to stimulate intestinal-calcium transport by the administration of compound in rats at a concentration of 500 pmol at 72 hr.; type: functional, Intestine
[14] = tested on: Rattus norvegicus; experiment: Ability to mobilize Bone-Calcium transport, following the administration of compound in rats at a concentration of 500 pmol at 47 hr.; type: functional, organism-based
[15] = tested on: Rattus norvegicus; experiment: Ability to mobilize Bone-Calcium transport, following the administration of compound in rats at a concentration of 5 pmol at 47 hr.; type: functional, organism-based
[16] = species on record: Rattus norvegicus; experiment: Calcium binding protein induction in duodenal organ culture at a concentration of 100 nM in Male Albino rats; type: functional
[17] = tested on: Rattus norvegicus; experiment: Ability to stimulate intestinal-calcium transport by the administration of compound in rats at a concentration of 50 pmol at 72 hr.; type: functional, Intestine
[18] = tested on: Rattus norvegicus; experiment: Ability to stimulate intestinal-calcium transport by the administration of compound in rats at a concentration of 500 pmol at 13 hr.; type: functional, Intestine
[19] = tested on: Rattus norvegicus; experiment: Ability to mobilize Bone-Calcium transport, following the administration of compound in rats at a concentration of 50 pmol at 72 hr.; type: functional, organism-based
[20] = tested on: Rattus norvegicus; experiment: Ability to stimulate intestinal-calcium transport by the administration of compound in rats at a concentration of 5000 pmol at 47 hr.; type: functional, Intestine
[21] = tested on: Rattus norvegicus; experiment: Ability to stimulate intestinal-calcium transport by the administration of compound in rats at a concentration of 500 pmol at 47 hr.; type: functional, Intestine
[22] = tested on: Rattus norvegicus; experiment: Ability to stimulate intestinal-calcium transport by the administration of compound in rats at a concentration of 5 pmol at 47 hr.; type: functional, Intestine
[23] = tested on: Rattus norvegicus; experiment: Ability to stimulate intestinal-calcium transport by the administration of compound in rats at a concentration of 5000 pmol at 72 hr.; type: functional, Intestine
[24] = tested on: Rattus norvegicus; experiment: Ability to mobilize Bone-Calcium transport, following the administration of compound in rats at a concentration of 50 pmol at 13 hr.; type: functional, organism-based
[25] = tested on: Rattus norvegicus; experiment: Ability to mobilize Bone-Calcium transport, following the administration of compound in rats at a concentration of 5000 pmol at 48 hr.; type: functional, organism-based
[26] = tested on: Rattus norvegicus; experiment: Ability to stimulate intestinal-calcium transport by the administration of compound in rats at a concentration of 50 pmol at 48 hr.; type: functional, Intestine
[27] = tested on: Rattus norvegicus; experiment: Ability to stimulate intestinal-calcium transport by the administration of compound in rats at a concentration of 5 pmol at 69 hr.; type: functional, Intestine
[28] = tested on: Rattus norvegicus; experiment: Ability to stimulate intestinal-calcium transport by the administration of compound in rats at a concentration of 5000 pmol at 48 hr.; type: functional, Intestine
[29] = tested on: Rattus norvegicus; experiment: Ability to mobilize Bone-Calcium transport, following the administration of compound in rats at a concentration of 500 pmol at 69 hr.; type: functional, organism-based
[30] = tested on: Rattus norvegicus; experiment: Ability to stimulate intestinal-calcium transport by the administration of compound in rats at a concentration of 500 pmol at 69 hr.; type: functional, Intestine
[31] = tested on: Rattus norvegicus; experiment: Ability to stimulate intestinal-calcium transport by the administration of compound in rats at a concentration of 50 pmol at 69 hr.; type: functional, Intestine
[32] = tested on: Rattus norvegicus; experiment: Ability to mobilize Bone-Calcium transport, following the administration of compound in rats at a concentration of 5 pmol at 69 hr.; type: functional, organism-based
[33] = tested on: Rattus norvegicus; experiment: Ability to stimulate intestinal-calcium transport by the administration of compound in rats at a concentration of 5000 pmol at 69 hr.; type: functional, Intestine
[34] = tested on: Rattus norvegicus; experiment: Ability to mobilize Bone-Calcium transport, following the administration of compound in rats at a concentration of 5 pmol at 12 hr.; type: functional, organism-based
[35] = tested on: Rattus norvegicus; experiment: Ability to stimulate intestinal-calcium transport by the administration of compound in rats at a concentration of 500 pmol at 12 hr.; type: functional, Intestine
[36] = tested on: Rattus norvegicus; experiment: Ability to mobilize Bone-Calcium transport, following the administration of compound in rats at a concentration of 5000 pmol at 69 hr.; type: functional, organism-based
[37] = tested on: Rattus norvegicus; experiment: Ability to stimulate intestinal-calcium transport by the administration of compound in rats at a concentration of 5000 pmol at 12 hr.; type: functional, Intestine
[38] = tested on: Rattus norvegicus; experiment: Ability to mobilize Bone-Calcium transport, following the administration of compound in rats at a concentration of 5 pmol at 48 hr.; type: functional, organism-based
[39] = tested on: Rattus norvegicus; experiment: Ability to mobilize Bone-Calcium transport, following the administration of compound in rats at a concentration of 500 pmol at 12 hr.; type: functional, organism-based
[40] = tested on: Rattus norvegicus; experiment: Ability to mobilize Bone-Calcium transport, following the administration of compound in rats at a concentration of 50 pmol at 12 hr.; type: functional, organism-based

Compound: C=C1CC[C@H](O)C/C1=C/C=C1\CCC[C@]2(C)[C@@H]([C@H](C)CCC(F)(F)C(O)(CC)CC)CC[C@@H]12
- Serum Ca2+ [1]: 4.38 mg/dL
- Serum Ca2+ [2]: 4.63 mg/dL
- Serosal/Mucosal Ca [3]: 2.2
- Serosal/Mucosal Ca [4]: 2.3
- Ca2+ binding protein [5]: 10.1 ug (100mg of duodenum)-1
- Serum Ca2+ [6]: 5.84 mg/dL
- Serum Ca2+ [7]: 6.16 mg/dL
- Serosal/Mucosal Ca [8]: 3.29
- Relative potency [9]: 4.5
- Ca2+ binding protein [10]: 22.4 ug (100mg of duodenum)-1
- Serum Ca2+ [11]: 5.92 mg/dL
- Serosal/Mucosal Ca [12]: 4.84
- Serosal/Mucosal Ca [13]: 7.29
- Serum Ca2+ [14]: 4.5 mg/dL
- Serum Ca2+ [15]: 4.34 mg/dL
- Ca2+ binding protein [16]: 66.7 ug (100mg of duodenum)-1
- Serosal/Mucosal Ca [17]: 2.84
- Serosal/Mucosal Ca [18]: 5.85
- Serum Ca2+ [19]: 4.64 mg/dL
- Serosal/Mucosal Ca [20]: 11.06
- Serosal/Mucosal Ca [21]: 8.04
- Serosal/Mucosal Ca [22]: 2.59
- Serosal/Mucosal Ca [23]: 9.39
- Serum Ca2+ [24]: 4.14 mg/dL

Compound: C=C1/C(=C\C=C2/CCC[C@]3(C)[C@@H]([C@H](C)CCC(F)(F)C(O)(CC)CC)CC[C@@H]23)C[C@@H](O)C[C@@H]1O
- Serum Ca2+ [25]: 5.86 mg/dL
- Serosal/Mucosal Ca [26]: 4.25
- Serosal/Mucosal Ca [27]: 2.34
- Serosal/Mucosal Ca [28]: 8
- Serum Ca2+ [29]: 4.87 mg/dL
- Serosal/Mucosal Ca [30]: 5.46
- Serosal/Mucosal Ca [31]: 3.04
- Serum Ca2+ [32]: 4.13 mg/dL
- Serosal/Mucosal Ca [33]: 8.84
- Serum Ca2+ [34]: 4.34 mg/dL
- Serosal/Mucosal Ca [35]: 8.92
- Serum Ca2+ [36]: 4.82 mg/dL
- Serosal/Mucosal Ca [37]: 8.39
- Serum Ca2+ [38]: 3.98 mg/dL
- Serum Ca2+ [39]: 6.12 mg/dL
- Serum Ca2+ [40]: 5.5 mg/dL

Compound: C=C1CC[C@H](O)C/C1=C/C=C1\CCC[C@]2(C)[C@@H]([C@H](C)CCCC(C)(C)O)CC[C@@H]12 [CALCIFEDIOL ANHYDROUS]
- Serum Ca2+ [1]: 5.04 mg/dL
- Serum Ca2+ [2]: 4.68 mg/dL
- Serosal/Mucosal Ca [3]: 3.59
- Serosal/Mucosal Ca [4]: 2.22
- Serum Ca2+ [6]: 6.5 mg/dL
- Serum Ca2+ [7]: 6.24 mg/dL
- Serosal/Mucosal Ca [8]: 11.54
- Serum Ca2+ [11]: 6.82 mg/dL
- Serosal/Mucosal Ca [12]: 5.43
- Serosal/Mucosal Ca [13]: 9.89
- Serum Ca2+ [14]: 5.12 mg/dL
- Serum Ca2+ [15]: 4.66 mg/dL
- Serosal/Mucosal Ca [17]: 8.87
- Serosal/Mucosal Ca [18]: 3.6
- Serum Ca2+ [19]: 4.52 mg/dL
- Serosal/Mucosal Ca [20]: 11.01
- Serosal/Mucosal Ca [21]: 9.99
- Serosal/Mucosal Ca [22]: 3.41
- Serosal/Mucosal Ca [23]: 11.48
- Serum Ca2+ [24]: 4.86 mg/dL

Compound: C=C1/C(=C\C=C2/CCC[C@]3(C)[C@@H]([C@H](C)CCCC(C)(C)O)CC[C@@H]23)C[C@@H](O)C[C@@H]1O [CALCITRIOL]
- Serum Ca2+ [25]: 4.78 mg/dL
- Serosal/Mucosal Ca [26]: 4.71
- Serosal/Mucosal Ca [27]: 2.75
- Serosal/Mucosal Ca [28]: 7.22
- Serum Ca2+ [29]: 4.48 mg/dL
- Serosal/Mucosal Ca [30]: 5.67
- Serosal/Mucosal Ca [31]: 5.69
- Serum Ca2+ [32]: 4.12 mg/dL
- Serosal/Mucosal Ca [33]: 4.99
- Serum Ca2+ [34]: 4.38 mg/dL
- Serosal/Mucosal Ca [35]: 4.06
- Serum Ca2+ [36]: 4.78 mg/dL
- Serosal/Mucosal Ca [37]: 7
- Serum Ca2+ [38]: 4.08 mg/dL
- Serum Ca2+ [39]: 6.1 mg/dL
- Serum Ca2+ [40]: 5.58 mg/dL
